Test systems include SF-268 CNS; UACC-62 melanoma; MDA-MB-231 breast; SNB-75 CNS; BT-549 breast; A549 NSCLC; NCI-H23 lung; SW-620 colon.
Holding throughout (experiment): growth of human tumour cells (NCI), 48 h

Values joined by “and” are separate entries in the source; they are usually repeats but may differ in a detail not shown here. Equal values may be shown once.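 48-hour exposure; five concentrations; linearly interpolated endpoints. At the GI50, growth is halved. Definition used: TGI = concentration required for complete inhibition of growth.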 Bounds are passed on as bounds.

Among the data in PubChem BioAssay (NCI) are GI50 and TGI values, retold here.

Turning to `COc1cc(CCC[P+](c2ccccc2)(c2ccccc2)c2ccccc2)c(OC)c2c1OCO2`, the GI50 is 2.13 µM in the test on SF-268 CNS; 0.629 µM in the test on UACC-62 melanoma; 2.11 µM in the test on MDA-MB-231 breast; 1.2 µM in the test with SNB-75 CNS; 1.08 µM in the test on BT-549 breast; 3.95 µM with A549 NSCLC. Further, the GI50 was 1.67 µM in the test with NCI-H23 lung and 1.83 µM with SW-620 colon. In addition, the TGI in the test on SF-268 CNS came out at 13.1 µM; in the test on UACC-62 melanoma, 4.27 µM; with MDA-MB-231 breast, 10.3 µM; with SNB-75 CNS it was 4.59 µM; in the test with BT-549 breast, 8.5 µM; in the test on A549 NSCLC, 68.9 µM. Also, the TGI was found to be 10.3 µM in the test with NCI-H23 lung and 11.4 µM in the test with SW-620 colon.

For `O=C1Nc2c(Cl)cc(Cl)cc2/C1=N/N=C/c1ccco1`, the TGI in the test with UACC-62 melanoma was 53.6 µM; in the test with MDA-MB-231 breast, 58 µM; with SNB-75 CNS it was 42.7 µM; with BT-549 breast, 60.6 µM; with A549 NSCLC, above 100 µM; with NCI-H23 lung, 75.9 µM. In the test with SW-620 colon, this compound came in with a TGI above 100 µM.

As to `CCOC(=O)c1ccc(-n2cnc(-c3ccc([N+](=O)[O-])cc3)c2)cc1`, the TGI with SF-268 CNS, in the test on UACC-62 melanoma, with MDA-MB-231 breast, with SNB-75 CNS, with BT-549 breast and in the test with A549 NSCLC was above 100 µM throughout. In addition, the TGI with NCI-H23 lung and in the test with SW-620 colon was above 100 µM in each case.

As to `CC1SC(c2ccccc2Cl)N(NC(=O)C(O)c2ccccc2)C1=O` (centres undefined), the GI50 is above 100 µM in the test with SF-268 CNS; 45 µM with UACC-62 melanoma; 33.8 µM in the test on MDA-MB-231 breast; above 100 µM with SNB-75 CNS; above 100 µM with BT-549 breast; 52.3 µM in the test on A549 NSCLC. Besides, the GI50 in the test on SW-620 colon was above 100 µM. Moreover, the TGI in the test with SF-268 CNS, with UACC-62 melanoma, in the test on MDA-MB-231 breast, with SNB-75 CNS, in the test on BT-549 breast and in the test on A549 NSCLC was above 100 µM in each case. For the same compound, the TGI in the test with SW-620 colon was above 100 µM.

Regarding `COC(=O)/C=C1/SC(=Nc2cccc(Cl)c2)N(CCc2c[nH]c3ccc(O)cc23)C1=O`, the GI50 with SF-268 CNS is 1.76 µM; in the test on UACC-62 melanoma, 1.68 µM; with MDA-MB-231 breast, 1.74 µM; in the test with SNB-75 CNS it was 2.11 µM; in the test on BT-549 breast, 1.24 µM; in the test with A549 NSCLC, 2.65 µM. In the test with NCI-H23 lung, the GI50 was 1.86 µM. The TGI in the test with SF-268 CNS was determined as 4.47 µM; in the test on UACC-62 melanoma it was 3.47 µM; in the test with MDA-MB-231 breast it was 3.59 µM; in the test with SNB-75 CNS, 5.1 µM; with BT-549 breast, 3.05 µM; with A549 NSCLC it was 6.95 µM. In addition, in the test on NCI-H23 lung, the TGI stood at 4.34 µM.

As to `COc1cc(-n2ccnc2-c2ccc3ccccc3c2)cc(OC)c1OC`, the GI50 was 0.182 µM with SF-268 CNS; 0.0657 µM with UACC-62 melanoma; 0.571 µM with MDA-MB-231 breast; 0.123 µM with SNB-75 CNS; 0.246 µM in the test on BT-549 breast; 0.12 µM in the test on A549 NSCLC. Further, the GI50 in the test on NCI-H23 lung is 0.223 µM; in the test with SW-620 colon, 0.0443 µM. Further, the TGI with SF-268 CNS is 49.8 µM; with UACC-62 melanoma it was 15.4 µM; with MDA-MB-231 breast it was 44.1 µM; in the test on SNB-75 CNS, 36.8 µM; in the test with BT-549 breast it was 14.9 µM; in the test on A549 NSCLC it was above 45.4 µM. The TGI in the test on NCI-H23 lung is 13.4 µM; with SW-620 colon it was above 63 µM.

Take `CSc1cc([C@@H]2C[C@H]2c2ccc(Cl)cc2)on1`: the GI50 in the test on SF-268 CNS was 21 µM; in the test with UACC-62 melanoma, 11.3 µM; with MDA-MB-231 breast it was 5.51 µM; in the test on SNB-75 CNS, 21.3 µM; with BT-549 breast, 23.9 µM; in the test on A549 NSCLC, 21.6 µM. The GI50 with NCI-H23 lung is 3.98 µM; in the test on SW-620 colon it was 20.7 µM. In addition, the TGI was 46.3 µM in the test with SF-268 CNS; 24.7 µM with UACC-62 melanoma; 21.7 µM in the test with MDA-MB-231 breast; 49.5 µM in the test on SNB-75 CNS; 62 µM in the test with BT-549 breast; above 100 µM with A549 NSCLC. For the same compound, the TGI in the test on NCI-H23 lung is 18.1 µM; with SW-620 colon, 59.8 µM.

Regarding `CC1=C(C#N)C23C(=O)N(c4ccccc4)C(=O)C2=C(O)C=CC3(O)N1Cc1ccc(Cl)cc1Cl` (centres undefined), the GI50 in the test with SF-268 CNS is 3.74 µM; in the test with UACC-62 melanoma, 1.88 µM; in the test on MDA-MB-231 breast, 3.93 µM; with SNB-75 CNS, 4.09 µM; in the test with BT-549 breast, 1.46 µM; in the test with A549 NSCLC it was 12.2 µM. The GI50 was 3.33 µM in the test on NCI-H23 lung and 2.07 µM with SW-620 colon. The TGI is 16.4 µM in the test with SF-268 CNS; 4.4 µM with UACC-62 melanoma; 16.1 µM in the test on MDA-MB-231 breast; 16.7 µM with SNB-75 CNS; 3.17 µM with BT-549 breast; 28.5 µM in the test on A549 NSCLC. Besides, the TGI with NCI-H23 lung came to 15.9 µM; in the test on SW-620 colon, 4.29 µM.

As for `CCN1CCN(CCNc2nccc(-c3c(-c4ccc(F)c(O)c4)nc4occn34)n2)S1(=O)=O`, the GI50 is 4.84 µM in the test on SF-268 CNS; 1.5 µM in the test with UACC-62 melanoma; 32.3 µM in the test on MDA-MB-231 breast; 3.65 µM with SNB-75 CNS; 2.97 µM in the test on BT-549 breast; 4.58 µM in the test with A549 NSCLC. The GI50 in the test with NCI-H23 lung is 4.12 µM; in the test with SW-620 colon, 8.42 µM. Besides, the TGI was above 100 µM in the test with SF-268 CNS; 6.56 µM in the test with UACC-62 melanoma; above 100 µM in the test on MDA-MB-231 breast; above 100 µM in the test on SNB-75 CNS; above 100 µM in the test with BT-549 breast; above 100 µM with A549 NSCLC. Also, the TGI in the test with NCI-H23 lung and in the test with SW-620 colon was above 100 µM throughout.

`Cn1ncc(Cl)c1-c1cc(C(=O)N[C@H](CN)Cc2cccc(F)c2)sc1Cl`: the GI50 in the test on SF-268 CNS is 1.72 µM and 3.64 µM; in the test on UACC-62 melanoma it was 1.07 µM and 1.46 µM; in the test on MDA-MB-231 breast, 2.25 µM and 2.4 µM; with SNB-75 CNS, 0.139 µM and 0.131 µM; in the test on BT-549 breast it was 0.518 µM and 1.33 µM; in the test with A549 NSCLC, 0.946 µM and 2.32 µM. In addition, the GI50 is 2.45 µM and 8.12 µM with NCI-H23 lung; 2.16 µM and 7.33 µM with SW-620 colon. Further, the TGI in the test with SF-268 CNS is > 9.54 µM and 17.1 µM; with UACC-62 melanoma, > 5.59 µM and 11.6 µM; in the test on MDA-MB-231 breast it was > 8.32 µM and 8.33 µM; with SNB-75 CNS, 1.48 µM and 2.56 µM; with BT-549 breast, 3.35 µM and 7.5 µM; with A549 NSCLC, > 10 µM and 16 µM. Further, the TGI was > 8.23 µM and 22 µM with NCI-H23 lung; > 10 µM and 21 µM with SW-620 colon.

As to `CN1C(=O)CCC(N2C(=O)c3cccc(NCCOCCOCCNC(=O)c4cc5c(o4)C(=O)c4ccccc4C5=O)c3C2=O)C1=O` (centres undefined), the GI50 in the test on SF-268 CNS is 2.38 µM; with UACC-62 melanoma, 1.04 µM; in the test with MDA-MB-231 breast, 2.64 µM; in the test on SNB-75 CNS it was 2.74 µM; with BT-549 breast, 1.38 µM; with A549 NSCLC, 1.99 µM. In addition, in the test with SW-620 colon, the GI50 is 2.6 µM. For the same compound, the TGI in the test with SF-268 CNS amounted to 6.79 µM; with UACC-62 melanoma, 2.35 µM; in the test on MDA-MB-231 breast it was 8.77 µM; in the test on SNB-75 CNS, 4.72 µM; in the test with BT-549 breast, 2.7 µM; with A549 NSCLC it was 4.49 µM. Besides, the TGI with SW-620 colon came to 7.93 µM.

On to `CC(C)(C)OC(=O)C1C(=O)NC(=O)CC1CC(OCc1ccccc1)C(OCc1ccccc1)C(COCc1ccccc1)OCc1ccccc1` (centres undefined), for which the GI50 is 46.8 µM and 16.1 µM in the test with SF-268 CNS; 42.8 µM and 6.81 µM in the test on MDA-MB-231 breast; 26 µM and 5.23 µM in the test on A549 NSCLC; 80.1 µM and 30 µM with NCI-H23 lung; 74.5 µM and 23.4 µM with SW-620 colon. The TGI in the test on SF-268 CNS was above 100 µM; in the test with MDA-MB-231 breast, above 100 µM; with SNB-75 CNS it was above 100 µM; in the test with BT-549 breast, 79.5 µM and > 100 µM; in the test with A549 NSCLC it was > 100 µM and 28.5 µM; in the test with NCI-H23 lung it was above 100 µM. In the test with SW-620 colon, this compound displayed a TGI above 100 µM.

With `Nc1ncc(-c2ccc3ncnc(Nc4cccc(Cl)c4)c3c2)cn1`, the GI50 with SF-268 CNS was 0.294 µM and 1.95 µM; in the test on UACC-62 melanoma it was 2.69 µM; in the test on MDA-MB-231 breast it was 2.22 µM; with SNB-75 CNS, 0.109 µM; with BT-549 breast, 0.262 µM; in the test on A549 NSCLC, 1.7 µM. For the same compound, the TGI in the test with SF-268 CNS is above 100 µM; with UACC-62 melanoma, above 100 µM; in the test with MDA-MB-231 breast it was above 100 µM; in the test with SNB-75 CNS it was 0.695 µM; in the test on A549 NSCLC it was above 100 µM.

Take `C[C@@H]1C[C@H](N)C[C@H](c2ccncc2NC(=O)c2ccc(F)c(-c3c(F)cccc3F)n2)C1`: the GI50 was 10.8 µM and > 10 µM in the test on SF-268 CNS; 14.3 µM and > 10 µM with UACC-62 melanoma; 12.8 µM and 4.01 µM with MDA-MB-231 breast; 2.55 µM and 4.3 µM with SNB-75 CNS; 10.3 µM and 5.17 µM with BT-549 breast; 15.9 µM and > 10 µM in the test on A549 NSCLC. In addition, the GI50 in the test on SW-620 colon is 11.6 µM and 9.63 µM. The TGI in the test with SF-268 CNS is 25.3 µM and > 10 µM; in the test with UACC-62 melanoma, 28.2 µM and > 10 µM; with MDA-MB-231 breast it was 26.8 µM and > 10 µM; with SNB-75 CNS, 18.2 µM and > 10 µM; with BT-549 breast, 22.6 µM and > 10 µM; with A549 NSCLC, 31.6 µM and > 10 µM. Moreover, in the test with SW-620 colon, the TGI is 25.2 µM and > 10 µM.

For the compound `COc1ccc2cc(-c3cnc4nonc4n3)ccc2c1`, the GI50 with SF-268 CNS is 8.59 µM; with UACC-62 melanoma, 2.32 µM; with MDA-MB-231 breast, 14.1 µM; in the test with BT-549 breast it was 4.39 µM; with A549 NSCLC, 3.33 µM; in the test with NCI-H23 lung, 4.49 µM. The GI50 with SW-620 colon is 1.25 µM. Further, the TGI in the test on SF-268 CNS, in the test with UACC-62 melanoma, in the test on MDA-MB-231 breast, in the test on BT-549 breast, in the test on A549 NSCLC and with NCI-H23 lung was above 100 µM throughout. Moreover, in the test with SW-620 colon, the TGI is above 100 µM.
